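Where inhibition never reached the appropriate level, the endpoint shown equals the highest concentration tested. Otherwise, values were interpolated linearly from a five-concentration, 48-hour dose response in 96-well plates. Abbreviation: GI50, concentration required for 50% inhibition of growth. Definition used: TGI = concentration required for complete inhibition of growth.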
Key:
Assay in all cases: inhibition of tumour cell growth, NCI panel, 48 h; in the data active = GI50 below about 0.43 µM; inactive = the rest
[1] = system: SF-295 CNS
[2] = system: ACHN renal
[3] = system: CCRF-CEM leukemia
[4] = system: LXFL 529 NSCLC
[5] = system: NCI-H226 lung
[6] = system: U251 CNS
[7] = system: HCC-2998 colon
[8] = system: KM20L2 colon
[9] = system: SK-MEL-5 melanoma
[10] = system: NCI-H23 lung
[11] = system: SK-OV-3 ovarian
[12] = system: A549 NSCLC
[13] = system: SN12C renal
[14] = system: SK-MEL-28 melanoma
[15] = system: OVCAR-3 ovarian
[16] = system: HOP-18 NSCLC
[17] = system: M14 melanoma
[18] = system: UACC-257 melanoma
[19] = system: HL-60(TB) leukemia
[20] = system: LOX IMVI melanoma
[21] = system: UO-31 renal
[22] = system: NCI-H522 lung
[23] = system: HT29 colon
[24] = system: COLO 205 colon
[25] = system: TK-10 renal
[26] = system: A498 renal
[27] = system: RXF 393 renal
[28] = system: M19-MEL melanoma
[29] = system: OVCAR-5 ovarian
[30] = system: MALME-3M melanoma
[31] = system: SW-620 colon
[32] = system: DLD-1 colon
[33] = system: SNB-19 CNS
[34] = system: OVCAR-4 ovarian
[35] = system: DMS 273 small cell lung
[36] = system: OVCAR-8 ovarian
[37] = system: IGROV1 ovarian
[38] = system: HOP-62 NSCLC
[39] = system: SK-MEL-2 melanoma
[40] = system: SNB-75 CNS
[41] = system: KM12 colon
[42] = system: 786-0 renal
[43] = system: HCT-15 colon
[44] = system: CAKI-1 renal
[45] = system: HOP-92 NSCLC
[46] = system: MOLT-4 leukemia
[47] = system: SF-268 CNS
[48] = system: RPMI-8226 leukemia
[49] = system: NCI-H460 lung
[50] = system: EKVX NSCLC
[51] = system: SF-539 CNS
[52] = system: HCT-116 colon
[53] = system: UACC-62 melanoma
[54] = system: SNB-78 CNS
[55] = system: K-562 leukemia
[56] = system: DMS 114 small cell lung
[57] = system: SR leukemia
[58] = system: DU-145 prostate
[59] = system: T-47D breast
[60] = system: MDA-MB-435
[61] = system: PC-3 prostate
[62] = system: MDA-N
[63] = system: MDA-MB-231 breast
[64] = system: NCI/ADR-RES ovarian
[65] = system: HS 578T breast
[66] = system: BT-549 breast
[67] = system: MCF7 breast

NC1CCCC[C@H]1N.N[C@@H]1CCCC[C@@H]1N.O=C(P(=O)([O-])[O-])P(=O)([O-])[O-].[Pt+4].[Pt+4]
47.4 µM: TGI [22]
> 100 µM: TGI [1] | TGI [2] | TGI [3] | TGI [4] | TGI [5] | TGI [6] | TGI [7] | TGI [8] | TGI [9] | TGI [10] | TGI [11] | TGI [12] | TGI [13] | TGI [14] | TGI [15] | TGI [16] | TGI [17] | TGI [18] | TGI [19] | TGI [20] | TGI [21] | TGI [23] | TGI [24] | TGI [25] | TGI [26] | TGI [27] | TGI [28] | TGI [29] | TGI [30] | TGI [31] | TGI [32] | TGI [33] | TGI [34] | TGI [35] | TGI [36] | TGI [37] | TGI [38] | TGI [39] | TGI [40] | TGI [41] | TGI [42] | TGI [43] | TGI [44] | TGI [45] | TGI [46] | TGI [47] | TGI [48] | TGI [49] | TGI [50] | TGI [51] | TGI [52] | TGI [53] | TGI [54] | TGI [55]
inactive: GI50 [1] 96.7 µM | GI50 [2] 82.2 µM | GI50 [3] 14.1 µM | GI50 [4] > 100 µM | GI50 [5] > 100 µM | GI50 [6] > 100 µM | GI50 [7] > 100 µM | GI50 [8] > 100 µM | GI50 [9] > 100 µM | GI50 [10] > 100 µM | GI50 [11] > 100 µM | GI50 [12] > 100 µM | GI50 [13] > 100 µM | GI50 [14] > 100 µM | GI50 [15] > 100 µM | GI50 [16] 59.6 µM | GI50 [17] > 100 µM | GI50 [18] > 100 µM | GI50 [19] 18.3 µM | GI50 [20] > 100 µM | GI50 [21] > 100 µM | GI50 [22] 11.9 µM | GI50 [23] 70.9 µM | GI50 [24] > 100 µM | GI50 [25] > 100 µM | GI50 [26] > 100 µM | GI50 [27] > 100 µM | GI50 [28] 73 µM | GI50 [29] > 100 µM | GI50 [30] > 100 µM | GI50 [31] 38.8 µM | GI50 [32] > 100 µM | GI50 [33] > 100 µM | GI50 [34] > 100 µM | GI50 [35] 32.3 µM | GI50 [36] > 100 µM | GI50 [37] > 100 µM | GI50 [38] > 100 µM | GI50 [39] > 100 µM | GI50 [40] > 100 µM | GI50 [41] > 100 µM | GI50 [42] > 100 µM | GI50 [43] 63.8 µM | GI50 [44] > 100 µM | GI50 [45] > 100 µM | GI50 [46] 16 µM | GI50 [47] > 100 µM | GI50 [48] 31.1 µM | GI50 [49] 20 µM | GI50 [50] > 100 µM | GI50 [51] > 100 µM | GI50 [52] 83.8 µM | GI50 [53] > 100 µM | GI50 [54] > 100 µM | GI50 [55] 78.2 µM

COC(=O)C12C3C4C5(C(=O)OC)C(C1C35C(=O)N(C(C)C)C(C)C)C42C(=O)N(C(C)C)C(C)C (stereo unspecified)
> 43.6 µM: TGI [20] | TGI [31]
> 50 µM: TGI [1] | TGI [2] | TGI [3] | TGI [4] | TGI [5] | TGI [6] | TGI [7] | TGI [8] | TGI [9] | TGI [10] | TGI [11] | TGI [12] | TGI [13] | TGI [14] | TGI [15] | TGI [16] | TGI [17] | TGI [18] | TGI [19] | TGI [21] | TGI [22] | TGI [23] | TGI [24] | TGI [25] | TGI [26] | TGI [27] | TGI [28] | TGI [29] | TGI [30] | TGI [33] | TGI [34] | TGI [35] | TGI [36] | TGI [37] | TGI [56] | TGI [38] | TGI [39] | TGI [40] | TGI [41] | TGI [42] | TGI [44] | TGI [45] | TGI [46] | TGI [47] | TGI [48] | TGI [49] | TGI [50] | TGI [51] | TGI [53] | TGI [54] | TGI [57] | TGI [55]
> 33.7 µM: TGI [43]
> 38.4 µM: TGI [32]
33.6 µM: TGI [52]

O=C1NC(=O)C(c2c[nH]c3cc(Br)ccc23)=C1c1cn(C(c2ccccc2)(c2ccccc2)c2ccccc2)cn1
56.8 µM: TGI [30]
31.8 µM: TGI [13]
25.8 µM: TGI [39]
36.5 µM: TGI [36]
92.6 µM: TGI [14]
19.3 µM: TGI [5]
37.5 µM: TGI [27]
33.1 µM: TGI [47]
32.3 µM: TGI [57]
37.9 µM: TGI [51]
23.6 µM: TGI [52]
38.4 µM: TGI [25]
37.6 µM: TGI [43]
39 µM: TGI [29]
51.2 µM: TGI [18]
97.4 µM: TGI [33] | TGI [44]
50.4 µM: TGI [61]
27.1 µM: TGI [23]
> 100 µM: TGI [1] | TGI [2] | TGI [3] | TGI [11] | TGI [60] | TGI [15] | TGI [64] | TGI [31] | TGI [34] | TGI [65] | TGI [41] | TGI [53]
45.9 µM: TGI [55]
23.5 µM: TGI [46]
27.4 µM: TGI [24]
27.3 µM: TGI [12]
23.2 µM: TGI [42]
24.7 µM: TGI [6]
28.5 µM: TGI [37]
38.8 µM: TGI [66]
29.1 µM: TGI [50]
25.3 µM: TGI [10]
37.2 µM: TGI [26]
62.8 µM: TGI [58]
26.4 µM: TGI [7]
83.9 µM: TGI [38]
93 µM: TGI [59]
30.3 µM: TGI [45]
34 µM: TGI [22]
36.8 µM: TGI [48]
21.4 µM: TGI [63]
48.8 µM: TGI [40]
29.9 µM: TGI [17]
33.4 µM: TGI [20]
22.9 µM: TGI [9]
39.5 µM: TGI [19]
31.4 µM: TGI [49]
40.4 µM: TGI [67]
27.8 µM: TGI [62]
31.9 µM: TGI [21]
